{"source": "paper PMC4718634", "about": "“Murine GPRC6A Mediates Cellular Responses to L-Amino Acids, but Not Osteocalcin Variants” (PLoS ONE, 2016)", "key": {"GPRC6A": {"tested_on": "GPRC6A", "parameters": "method as in PMID 15576628", "conditions": "chimera with goldfish 5.24 receptor and full length GPRC6A; ref [1]; cited from earlier work"}, "mGPRC6A (mouse GPRC6A) [1]": {"biological_target": "T1, mGPRC6A (mouse GPRC6A) (Mus musculus, UniProt Q8K4Z6)", "T1 sequence (Q8K4Z6 21-928)": "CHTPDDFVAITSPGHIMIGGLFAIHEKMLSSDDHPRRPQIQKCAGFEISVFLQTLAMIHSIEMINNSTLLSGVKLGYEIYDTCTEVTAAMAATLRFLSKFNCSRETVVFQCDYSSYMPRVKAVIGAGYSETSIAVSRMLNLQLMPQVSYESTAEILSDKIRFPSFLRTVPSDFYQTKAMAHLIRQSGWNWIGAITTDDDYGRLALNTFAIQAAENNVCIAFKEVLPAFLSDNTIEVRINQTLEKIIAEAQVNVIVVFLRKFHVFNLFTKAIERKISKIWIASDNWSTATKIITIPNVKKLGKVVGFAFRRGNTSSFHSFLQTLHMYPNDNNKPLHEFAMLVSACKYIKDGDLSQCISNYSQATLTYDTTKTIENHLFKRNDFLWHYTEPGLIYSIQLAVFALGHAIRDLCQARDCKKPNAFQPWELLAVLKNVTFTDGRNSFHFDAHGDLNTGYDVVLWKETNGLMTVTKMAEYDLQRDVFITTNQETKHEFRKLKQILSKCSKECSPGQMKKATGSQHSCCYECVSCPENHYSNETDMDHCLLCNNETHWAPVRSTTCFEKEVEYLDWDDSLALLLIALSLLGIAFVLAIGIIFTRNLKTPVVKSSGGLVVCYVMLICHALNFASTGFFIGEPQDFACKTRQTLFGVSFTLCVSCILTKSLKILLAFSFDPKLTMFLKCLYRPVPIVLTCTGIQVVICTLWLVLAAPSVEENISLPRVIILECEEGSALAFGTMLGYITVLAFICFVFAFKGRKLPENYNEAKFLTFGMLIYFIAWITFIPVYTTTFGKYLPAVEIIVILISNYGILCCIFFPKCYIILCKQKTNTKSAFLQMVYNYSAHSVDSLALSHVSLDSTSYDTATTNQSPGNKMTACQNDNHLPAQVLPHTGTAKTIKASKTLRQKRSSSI", "assay": "Ca^2+i mobilisation, FlpIn-TREx-HEK293-mGPRC6A cells", "assay_type": "cell-based", "description": "(§1) pcDNA 5/FRT/TO constructs were isogenically integrated into a FlpIn-TREx-HEK293 cell line (Life Technologies). FlpIn-TREx-HEK293-mGPRC6A and FlpIn-TREx-HEK293-hGPRC6A cells were then selected using 600 μg/ml hygromycin and 5 μg/ml blasticidin and grown in culture medium consisting of Dulbecco’s Modified Eagle Medium (DMEM), supplemented with 10% (v/v) foetal bovine serum (FBS) at 37°C in 5% CO2 and were sub-cultured in a 1:3 ratio every 3–4 days. Cells were cultured overnight in the presence of 1 μg/ml tetracycline to induce GPRC6A expression. […] 48 h after transfection, cells were selected using 3 μg/ml puromycin and grown as above.\nFlpIn-TREx-HEK293-mGPRC6A cells were seeded into T75 flasks at 70% confluency. Cells were transfected with 15μg of plasmid DNA (Gαq or GαqG66D) with Lipofectamine LTX according to manufacturer's instructions, then incubated for 24h at 37°C in 5% CO2. Cells were plated into 96-well plates (10^5 cells/well) and equilibrated at 37°C in 5% CO2 for 4-6h to adhere, whereupon cells were serum starved overnight at 37°C in 5% CO2. For the assay, cells were washed twice in Ca^2+ assay buffer (150 mM NaCl, 2.6 mM KCl, 1.2 mM MgCl2, 10 mM dextrose, 10 mM HEPES, 2.2 mM CaCl2, 0.5% (w/v) BSA and 4 mM probenecid; pH 7.4). Buffer was then replaced with Ca^2+ assay buffer containing 1μM Fluo-4-AM and incubated for 1h at 37°C in 5% CO2. Cells were washed twice more and replaced with Ca^2+ assay buffer at 37°C. Serial dilutions of test agonists were added by injection in a Flexstation™ (Molecular Devices) and fluorescence was measured at 485nm excitation and 520nm emission wavelengths. Agonist responses were normalised to the peak of response to 100 μM ATP.\n(§2) Data for all HEK293 assays represent the mean ± SEM of at least three independent experiments (except cell impedance, n = 2). For GLP-1 release, the data represent mean ± SEM of three to five independent experiments (except for OCN, wash; n = 2). For insulin release assays, data represent the mean ± SEM of three independent experiments (except for islet studies; n = 2). Insulin release data were normalised to the response to vehicle in either low or high [glucose]. Statistical analysis for GLP-1 release data were performed by one-way ANOVA, followed by Sidak’s multiple comparisons test (treating wash / no wash datasets separately). Statistical analyses for insulin release data were performed by two-way ANOVA (with [glucose] and drug treatment as group variables), followed by Sidak’s multiple comparisons test. Where only high [glucose] groups were evaluated, statistical analysis was by one-way ANOVA followed by Sidak’s multiple comparisons test."}, "β-TC6 cells": {"tested_on": "β-TC6 cells", "assay": "Insulin release from β-TC6 cells", "assay_type": "cell-based, murine", "conditions": "OCN 0.03–100 ng/ml; both glucose concentrations; S3 Fig A", "description": "(§3) MIN6 or βTC-6 cells were seeded in 24-well plates at 170,000 cells per well in DMEM (containing 4.5g/L glucose, 10 mM HEPES, 100 U/ml penicillin, 100 μg/ml streptomycin and 15% de-complemented FBS) and incubated at 37°C / 5% CO2 for 72 h. Cells were then washed with 500 μl PBS and incubated in 500 μl deprivation media (DMEM with zero glucose, 10 mM HEPES, 1 mM Na-pyruvate, 100 U/ml penicillin, 100 μg/ml streptomycin, 15% de-complemented FBS) for 2 h at 37°C. Media was aspirated and after washing with 500 μl PBS, cells were treated with 250 μl of Krebs buffer (250 mM NaCl, 5.9 mM KCl, 1.2 mM MgCl2, 1.3 mM CaCl2, 25 mM HEPES, 0.1% BSA (w/v), and 2 mM or 16.7 mM glucose; pH 7.4) in the presence or absence of test compound. After incubation for 2 h at 37°C, the assay was terminated by placing the plates on ice and supernatants were transferred to a 96-well plate in preparation for insulin ELISA (Alpco) following manufacturer’s instructions. The cell monolayer was washed twice with 500 μl of PBS and then lysed using 250 μl of 1 N NaOH prior to protein measurement by the method of Bradford (1976).\nas §2, with “Concentration-response data were analysed using a three or four parameter logistic function (Motulsky & Christopoulos, 2004) to generate estimates of agonist potency (LogEC50). Data” for “Data”"}, "GLUTag cells": {"tested_on": "GLUTag cells", "assay": "GLP-1 release from GLUTag cells", "assay_type": "cell-based, murine", "conditions": "0.01–10 ng/ml; with or without cell washing; 2 h; Fig 6A", "description": "Intestinal L-cell model GLUTag cells were seeded in 24-well plates coated with Matrigel and incubated for 6 days in DMEM with 10% FBS, 100 U/ml penicillin, 100 μg/ml streptomycin at 37°C in 5% CO2 and grown for 4–5 days. Where indicated, cells were washed (1 or 2 x 1h) with Krebs-HEPES buffer (20 mM HEPES, 118 mM NaCl, 4.7 mM KCl, 1.2 mM MgSO4, 5 mM NaHCO3, 1.2 mM KH2PO4, 2.5 mM CaCl2, 5.5 mM glucose, 0.2% BSA (w/v), pH 7.2) containing vildagliptin (300 μM) prior to addition of test compounds in the same buffer. After 2 h incubation at 37°C in 5% CO2, the supernatant was recovered and centrifuged at 500 rpm for 5 min. Where used, NPS-2143 pre-treatment was for 30 min.\nGLP-1 content in the cell supernatant was measured by ELISA (EGLP-35K, Millipore), according to manufacturer’s instructions after overnight incubation of 15 μl supernatant in 100 μl Krebs-HEPES buffer at 4°C. After 5 x washes, 200 μl of detection conjugate was added and incubated for 2 h at RT. After 3 x washes the reaction was developed with 200 μl of diluted substrate (1:200) for 20 min and terminated by addition of 50 μl stop solution. After 5 min, fluorescence was then measured using 355 nm excitation and 460 nm emission, transforming the obtained signal into pmol GLP-1/well/ml and corrected for GLUTag cell protein content as determined using the method of Bradford (1976).\nas §2, with “Concentration-response data were analysed using a three or four parameter logistic function (Motulsky & Christopoulos, 2004) to generate estimates of agonist potency (LogEC50). Data” for “Data”"}, "mGPRC6A (mouse GPRC6A) [2]": {"biological_target": "T1, mGPRC6A (mouse GPRC6A)", "assay": "Cyclic AMP accumulation, FlpIn-TREx-HEK293-mGPRC6A cells", "assay_type": "cell-based", "conditions": "30 min, 0.5 mM IBMX; Alphascreen; Fig 3A", "description": "as §1\nHEK293-mGPRC6A cells were seeded at a density of 10^5 cells per well into PDL-coated 96-well plates and incubated overnight in DMEM, supplemented with 10% FBS (v/v) at 37°C in 5% CO2. Cells were then incubated in 90 μl of stimulation buffer (HBSS containing 5 mM HEPES, 0.1% BSA (w/v), 0.5 mM IBMX; pH 7.4) for 30 min at 37°C. Test compounds (10 μl at 10 x final) were added and cells were incubated for an additional 30 min at 37°C. The medium was removed and cells were incubated in 50 μl of ice-cold 100% ethanol. Once evaporated, 100 μl of lysis buffer (5 mM HEPES, 0.1% BSA (w/v), 0.3% Tween-20; pH 7.4) was added to the cells and samples were stored at -20°C until further analysis. Samples were analysed using the Alphascreen® cAMP assay kit (Perkin Elmer) following manufacturer instructions. Briefly, 10 μl of lysates were added to a 384-well Optiplate. After addition of 5 μl of acceptor bead mix, plate was incubated at RT for 30 min followed by addition of 15 μl of donor bead mix. After overnight (16 h) incubation at RT, plates were read using the Envision plate reader."}, "MIN6 cells": {"tested_on": "MIN6 cells", "assay": "Insulin release from MIN6 cells", "assay_type": "cell-based, murine", "conditions": "mouse OCN 0.03–30 ng/mL, 0.03–100 ng/mL (Fig 6B legend); low and high glucose", "description": "as §3\nas §2, with “Concentration-response data were analysed using a three or four parameter logistic function (Motulsky & Christopoulos, 2004) to generate estimates of agonist potency (LogEC50). Data” for “Data”"}, "INS-1(832) cells": {"tested_on": "INS-1(832) cells", "assay": "Label-free cell impedance, INS-1(832) cells", "assay_type": "cell-based, rat", "conditions": "Gprc6a-negative; EBSS, 2.8 mM glucose; Fig 7; two-way ANOVA, *P < 0.05, **P < 0.01 vs Vehicle; listed as synthetic mouse OCN", "description": "For INS-1 cells, 100 μl of medium (RPMI 1640 no glucose, 10% FBS, 55 μM β-mercaptoethanol, 1 mM sodium pyruvate, 10 mM HEPES, 100 U/ml penicillin, 100 μg/ml streptomycin, 11.1 mM glucose) was added per well to an E-plate 96 and a background reading taken. Cells were seeded at 2 x 10^4 / well and the plates incubated in the instrument for 48 h. On the day of the experiment, media was changed to EBSS buffer (180 μl; 2.8 mM glucose, 1.8 mM CaCl2, 5.3 mM KCl, 0.8 mM MgSO4, 117 mM NaCl, 26 mM NaHCO3, 1 mM NaH2PO4). After 2 h incubation, cells were stimulated with 20 μl test compound (10 x final) prepared in the same buffer. Data capture and analysis were as for HEK293 cells."}}, "note": "“Also recorded” adds a separate entry of the source. Bridge positions count the residues as written; N and C are the ends. Ends that are not written are not given here."}
{"compound": "NCCCC[C@H](N)C(=O)O", "note": "[L-lysine]", "values": [{"measurement": "agonist response of GPRC6A", "setting": "GPRC6A", "value": "mediates responses to L-amino acids"}, {"measurement": "EC50", "setting": "mGPRC6A (mouse GPRC6A) [1]", "value": 15.8, "unit": "µM"}, {"measurement": "potency at murine GPRC6A (calcium and inositol phosphate, words)", "setting": "mGPRC6A (mouse GPRC6A) [1]; calcium mobilisation and inositol phosphate accumulation, Discussion", "value": "most potent agonists"}, {"measurement": "rank order of potency, Ca^2+ mobilisation", "setting": "mGPRC6A (mouse GPRC6A) [1]; co-expressing GαqG66D, Fig 1D", "value": "L-ornithine > L-arginine = L-lysine"}]}
{"compound": "YLYQWLGAPVPYPDPLEPRREVCELNPDCDELADHIGFQEAYRRFYGPV-NH2/-COOH (disulfide) [human synthetic OCN (acid form), synthetic de-carboxylated human osteocalcin, Federation Bioscience]", "values": [{"measurement": "insulin secretion, OCN", "setting": "β-TC6 cells", "value": "no significant effect"}, {"measurement": "GLP-1 release, OCN", "setting": "GLUTag cells", "value": "did not increase GLP-1 release"}]}
{"compound": "C=C[C@@]1(C)CC(=O)[C@]2(O)[C@@]3(C)[C@@H](O)CCC(C)(C)[C@@H]3[C@H](O)[C@H](OC(C)=O)[C@@]2(C)O1", "note": "[forskolin]", "values": [{"measurement": "stimulation of cAMP accumulation", "setting": "mGPRC6A (mouse GPRC6A) [2]", "value": "robust increases in cAMP levels"}]}
{"compound": "mouse synthetic OCN: synthetic de-carboxylated mouse osteocalcin, Federation Bioscience (YLGASVPSPDPLEPTREQCELNPACDELSDQYGLKTAYKRIYGITI-OH; disulfide 19-25 (inferred); not fully specified)", "values": [{"measurement": "insulin secretion, OCN", "setting": "MIN6 cells", "value": "did not affect insulin secretion"}, {"measurement": "change in cell impedance (cell index)", "setting": "INS-1(832) cells", "value": "significant changes in cell impedance; also recorded: Concentration-dependent increases in cell index"}]}
